Key:
[1] = MMV: MTT Cytotoxicity Assay Day 3 pi, U87-CD4-CCR5 cells, % cell death @ 5mM compound; type: toxicity, cell-based; settings: human, u87-cd4-ccr5, 5000 µM
[2] = MMV: MTT Cytotoxicity Assay Day 3 pi, U87-CD4-CXCR4 cells, % cell death @ 5mM compound; type: toxicity, cell-based; settings: human, u87-cd4-cxcr4, 5000 µM
[3] = MMV: MTT Cytotoxicity Assay Day 7 pi of Assay #6 (compound washed out Day 1 pi), U87-CD4-CCR5 cells, % cell death @ 5mM compound; type: toxicity, cell-based; settings: human, u87-cd4-ccr5, 5000 µM
[4] = MMV: MTT Cytotoxicity Assay Day 7 pi of Assay #7 (compound washed out Day 1 pi), U87-CD4-CXCR4 cells, % cell death @ 5mM compound; type: toxicity, cell-based; settings: human, u87-cd4-cxcr4, 5000 µM
[5] = tested on: Human immunodeficiency virus 1; test: MMV: HIV JRFL CCR5-tropic replication-competent virus, NO washout, P24 ELISA Day 7 pi, U87-CD4-CCR5, % inhibition at 5 mM compound; type: functional; set-up: dose or concentration left out as unconfirmed; settings: Human immunodeficiency virus 1, JR-FL, U87/CD4/CCR5, 168 h
[6] = MMV: MTT Cytotoxicity Assay Day 7 pi of Assay #10 (NO washout), U87-CD4-CCR5 cells, % cell death @ 5mM compound; type: toxicity, cell-based; settings: human, u87-cd4-ccr5, 5000 µM
[7] = MMV: MTT Cytotoxicity Assay Day 7 pi of Assay #11 (NO washout), U87-CD4-CXCR4 cells, % cell death @ 5mM compound; type: toxicity, cell-based; settings: human, u87-cd4-cxcr4, 5000 µM
[8] = tested on: Human immunodeficiency virus 1; test: MMV: HIV CCR5-tropic env JRFL pseudovirus assay produces luciferase signal in lieu of replicating viral particles Day 3 pi, U87-CD4-CCR5, % inhibition at 5 mM compound; type: functional; set-up: dose or concentration left out as unconfirmed; settings: Human immunodeficiency virus 1, JR-FL, U87/CD4/CCR5, 72 h
[9] = tested on: Human immunodeficiency virus 1; test: MMV: HIV CXCR4-tropic env NL4-3 pseudovirus assay produces luciferase signal in lieu of replicating viral particles Day 3 pi, U87-CD4-CXCR4, % inhibition at 5 mM compound; type: functional; set-up: dose or concentration left out as unconfirmed; settings: Human immunodeficiency virus 1, NL4-3, U87.CD4.CXCR4, 72 h
[10] = tested on: Human immunodeficiency virus 1; test: MMV: HIV CXCR4-tropic env HxB2 pseudovirus assay produces luciferase signal in lieu of replicating viral particles Day 3 pi, U87-CD4-CXCR4, % inhibition at 5 mM compound; type: functional; set-up: dose or concentration left out as unconfirmed; settings: Human immunodeficiency virus 1, HxB2, U87.CD4.CXCR4, 72 h
[11] = tested on: Human immunodeficiency virus 1; test: MMV: HIV NL4-3 CXCR4-tropic replication-competent virus, virus & compound washed out Day 1 pi, P24 ELISA Day 7 pi, U87-CD4-CXCR4, % inhibition at 5 mM compound; type: functional; set-up: dose or concentration left out as unconfirmed; settings: Human immunodeficiency virus 1, NL4-3, U87.CD4.CXCR4
[12] = tested on: Human immunodeficiency virus 1; test: MMV: HIV NL4-3 CXCR4-tropic replication-competent virus, NO washout, P24 ELISA Day 7 pi, U87-CD4-CXCR4, % inhibition at 5 mM compound; type: functional; set-up: dose or concentration left out as unconfirmed; settings: Human immunodeficiency virus 1, NL4-3, U87.CD4.CXCR4, 168 h

COc1ccc(C(=O)Nc2ccc(Cl)cc2C(=O)Nc2ccncc2)cc1
% Cell Death [1]: 14 | % Cell Death [2]: 22 | % Cell Death [3]: -7 | % Cell Death [4]: -11 | inhibition [5]: 0% | % Cell Death [6]: 0 | % Cell Death [7]: 33

CCOC(=O)c1cnc2ccc(OC)cc2c1Nc1ccc(N2CCN(C)CC2)cc1
inhibition [8]: -2% | inhibition [9]: 6% | inhibition [10]: -1% | % Cell Death [1]: -13 | % Cell Death [2]: 37 | inhibition [11]: 8% | % Cell Death [3]: 5 | % Cell Death [4]: 17 | % Cell Death [6]: 11 | % Cell Death [7]: -14

Cc1ccc(C(=O)c2oc3ccc4c(C)cc(=O)oc4c3c2C)cc1
% Cell Death [1]: 59 | % Cell Death [2]: 94 | % Cell Death [3]: 7 | % Cell Death [4]: 22 | inhibition [5]: 8% | % Cell Death [6]: 83 | % Cell Death [7]: 92

Cc1cc(C)c2c(c1)OCN(Cc1ccccc1Cl)C2
% Cell Death [1]: -12 | % Cell Death [2]: 31 | % Cell Death [3]: 20 | % Cell Death [4]: -14 | inhibition [5]: -2% | % Cell Death [6]: -6 | % Cell Death [7]: 33

CCc1c(C)c(=N)c2ccccc2n1C.I
% Cell Death [1]: 22 | % Cell Death [2]: 100 | % Cell Death [3]: 30 | % Cell Death [4]: -17 | inhibition [5]: 8% | % Cell Death [6]: -10 | % Cell Death [7]: -5

CCN1CCN(c2cc(C)c3cc(NC(=O)c4ccc(OC)c(OC)c4)ccc3n2)CC1
% Cell Death [1]: 95 | % Cell Death [2]: 36 | % Cell Death [3]: 93 | % Cell Death [4]: 61 | inhibition [5]: -2% | % Cell Death [6]: 43 | % Cell Death [7]: 55

Br.CCN(CC)S(=O)(=O)c1ccc(-c2csc(Nc3ccc(C)c(C)c3)n2)cc1
inhibition [8]: -2% | % Cell Death [1]: -17 | % Cell Death [2]: 29 | inhibition [11]: 3% | % Cell Death [3]: 20 | % Cell Death [4]: -19 | % Cell Death [6]: 26 | % Cell Death [7]: 11

CCCc1c(C)nc2ccccc2c1O
inhibition [9]: 9% | % Cell Death [1]: 5 | % Cell Death [2]: 8 | % Cell Death [3]: 22 | % Cell Death [4]: 31 | inhibition [5]: -2% | % Cell Death [6]: 18 | % Cell Death [7]: 51

CCN1CCN(Cc2ccc(NC(=O)c3cc4ccc5cccnc5c4[nH]3)cc2)CC1
% Cell Death [1]: -23 | % Cell Death [2]: 22 | % Cell Death [3]: 38 | % Cell Death [4]: -2 | inhibition [5]: 3% | % Cell Death [6]: 9 | % Cell Death [7]: 26

Cc1cc(N(C)C)nc(Nc2ccc(NC(=O)Nc3ccccc3)cc2)n1
% Cell Death [1]: 12 | % Cell Death [2]: 40 | % Cell Death [3]: -5 | % Cell Death [4]: -7 | inhibition [5]: 4% | % Cell Death [6]: 18 | % Cell Death [7]: -30

c1ccc(CNc2nc(Nc3ccccc3)nc3ccccc23)cc1
inhibition [8]: 6% | inhibition [10]: 9% | % Cell Death [1]: 36 | % Cell Death [2]: 53 | % Cell Death [3]: -8 | % Cell Death [4]: -7 | inhibition [12]: -2% | % Cell Death [6]: 27 | % Cell Death [7]: 0

CN(C)CCCNc1c2ccccc2nc2ccccc12
inhibition [9]: 1% | % Cell Death [1]: 30 | % Cell Death [2]: 21 | % Cell Death [3]: 8 | % Cell Death [4]: 15 | inhibition [5]: 3% | % Cell Death [6]: 30 | % Cell Death [7]: -4
